Assays:
[1] = test system: Corn plants (Zea mays), Pioneer 3514; test: Herbicide mode-of-action recognition by 1H NMR of plant isolates and neural network analysis (Example 8); format: in vivo; settings: for herbicide treatment group assigned by the neural network: chemically different AHAS inhibitors, output unit activation vs. treatment group; for output unit activation: small NN trained with first batch, tested on second batch, four herbicide groups and control
Experimental: Zea mays seeds (Pioneer 3514) were set to germinate in paper towel rolls in tap water for 5 days in the growing chamber. The environment was adjusted to “summer conditions” (day/night ratio of 14/10 hours, regulated temperature of 27° C. and humidity of 70%). After germination the seedlings were visually inspected. Seedlings that were homogeneous in size and appearance were selected, set in 50-ml amber bottles in 25-ml Hoagland nutrient solution (12 ml micronutrients stock solution, 12 ml FeEDTA (5 g/100 ml), 2.4 ml KH2PO4 (1 M), 24 ml MgSO4 (1 M), 60 ml KNO3 (1 M), 60 ml Ca(NO3)2 (1 M), and 60 ml MES buffer (200 mM), diluted to 12 litre with deionized water) and grown for 5 more days, after which they reached the three-leaf stage. At this point, 20 μl of a stock solution of technical grade herbicide in acetone (see Table I) was added to the hydroponic solution or applied to the second leaf (with similar results). The control group of “Untreated Plants” received 20 μl acetone only and all of the plants were returned to the growing chamber.
Twenty-four hours post-treatment, the plants were harvested by excising between the coleoptile and the first leaf collar. At this time, the plants show only slight growth stunting in response to the treatments. The first leaf sheet was separated and the meristematic tissue (approximately 250 to 300 mg per plant) was collected, flash frozen in liquid nitrogen in a cryogenic 3 ml tube, and stored in a liquid nitrogen freezer until further use. The plant meristems were each pulverized in a mortar (under liquid N2), suspended in 2.4 ml of HCl solution (0.25N) and centrifuged at 14000 g, 4° C., for 60 minutes. The NMR samples were prepared from 0.8 ml of the supernatants and 0.2 ml D2O (with TSP 0.05 w/v) and kept on ice.
(§1) The 500 MHz ^1H NMR spectra of plant extracts were recorded using a Bruker AMX 500 NMR spectrometer equipped with a TXI 5 mm probe. The probe temperature was carefully regulated using the Bruker/Haake variable temperature accessory, and all spectra were recorded under identical experimental conditions, as shown in Table 10:
The time-domain NMR spectra (“FIDs”) were exponential multiplied (LB=0.5 Hz), Fourier transformed, and then phase- and baseline-corrected manually. The frequency domain were exported by the NMR software as J-CAMP formatted files, which were stored in a UNIX subdirectory for “preprocessing” via NN_Tools, as described below.
The frequency domain NMR spectra were “preprocessed” by NN_Tools as follows: J-CAMP formatted spectra files were converted into vectors (8 k real data points), and the files were renamed (renumbered) in order to be processed by further programs in an automatic fashion. A window of points was cut from the central part (around O1) of each vector to delete the residual water signal. Then points were cut from the low field and high field parts of the vector, because no resonance signals were detectable in these regions. Groups of typically five (5) adjacent points were averaged in histogram fashion (“bining”) and the resulting “preprocessed” spectrum comprised 1080 data points. Finally, vertical scaling was applied to meet the signal amplitude requirements of the neural network software.
The artificial neural network calculations described in the report were performed using a standard software package, the Stuttgart Neural Network Simulator (SNNS), on a Silicon Graphics Inc. (SGI) UNIX workstation. A convenient interface called NN_Tools, was developed in-house to perform NMR spectral preprocessing and to format the raw data for input to SNNS. NN_Tools comprises a set of Perl scripts which form patterns out of NMR spectra that can be input automatically to SNNS for the training, validation, and testing steps of neural network simulation. This free software package (“freeware”) was developed at the Institute for Parallel and Distributed High Performance Systems at the University of Stuttgart, Germany. […]

[2] = test system: corn (Zea mays) seedlings; test: Blind test: NN recognition of mode-of-action of herbicides not used in training; format: in vivo; settings: NN trained only with untreated, PURSUIT, Diuron, Sethoxydim, Glyphosate; different herbicide concentrations
Experimental: As an example, we have used the NN trained and validated as shown in the above Example 3. It was trained to recognize untreated, PURSUIT®, Diuron, Sethoxydim, and Glyphosate treatment. In a blind test, we presented pattern from samples that were treated with no herbicide or different concentrations of various herbicides. In addition to the herbicides used in the training set, two other imidazolinones: ASSERT® and ARSENAL® (imazapyr and imazamethabenz) and two sulfonylureas GLEAN® and OUST® (chlorsulfuron and sulfometuron) were chosen, and the plants were treated as described above. For the blind test of the ANN analysis tool the samples only the two first to batches contributed samples to the training set. Thereby, the neuronal network had to truly recognized new batches with many samples having compound treatments applied that were unknown to the NN. In summary, we found a complete success of the methodology: The neuronal network classifies all untreated samples correctly as untreated, assigns the correct herbicide treatment for all herbicides that have been previously presented to the NN during training, even if such samples originated from batches that were not part of the NN training.
Note that the learning output target for the test spectra is zero in all cases in FIG. 4a and 4b. The total SSE in the calculation was high because of the difference between the given output value (zero) and the calculated value, but the spectra were correctly classified in all cases as belonging to the second output node, which is imazethapyr or AHAS inhibition. Similar results were obtained for the second set of experiments.

[3] = test system: corn (Zea mays) seedlings (Pioneer 3514); test: Neural network recognition of treatment from 1H NMR spectra of corn seedling extracts (training/validation cycle); format: in vivo; settings: for Network Recognition: validation set sel4c.pat, NN trained with 15 spectra (sel4.pat), meristematic tissue harvested 24 hours after treatment
Experimental: For example, corn (Zea mays) seeds (Pioneer 3514) were set to germinate in paper towel rolls in tap water covered with plastic foil (to minimize evaporation) for 5 days in the growing chamber. Conditions were adjusted to “summer days” (day/night 14/10 hours, controlled temperature 27° C. and humidity 70%). After germination the seedlings were visually inspected. Seedlings that were homogeneous in size and appearance were selected and set to grow in hydroponic Hoagland culture solution.
Each seedling was set in a 50 mL dark bottle in 25 mL Hoagland nutrient solution. The plants were then grown for 5 more days after they had reached the three-leaf stage. At this point the hydroponic solution was changed and the seedlings were treated as follows:
Different herbicide stock solutions in acetone were added in concentrated form to the hydroponic solution or, in the case of control plants with 20 μL acetone, or
The hydroponic solution was replaced by a solution containing different concentrations of herbicides, or just hydroponic nutrient solution for control plants.
All herbicides were technical grade. The plants were returned to the growing chamber after treatment. After 24 hours, the plants were harvested by excising between the coleoptile and the first leaf collar. The first leaf sheet was separated and the meristematic tissue collected was flash frozen in liquid nitrogen in a cryogenic 3 ml tube and stored in the liquid nitrogen freezer until further use.
For example, frozen meristematic tissue was placed in a mortar and liquid nitrogen was added. The pestle was also allowed to cool in the liquid nitrogen. When the liquid nitrogen was evaporated, the plant tissue was pulverized in the mortar. Then, 2.4 mL of 0.25N aq. HCl solution were added to the mortar and the sample was further mixed with the pestle. The suspension was placed into an Eppendorf centrifuge tube and set in ice until all the samples for an experiment were processed for centrifugation. The samples were centrifuged at 14000 g, at 4° C., for 60 minutes. The supernatant was separated from the pellet and 0.8 mL taken and mixed with 0.2 mL D2O (with TSP 0.05 w/v for NMR reference) for the lock signal in the spectrometer. The samples were kept in ice until NMR measurement.
as §1, with “proton” for “500 MHz ^1H”, “regulated to better than ±0.1 K” for “regulated”, “follows:” for “shown in Table 10:”
The NMR spectra were multiplied with an exponential function (LB parameter=0.5 Hz), Fourier transformed, and manually phase- and baseline-corrected. Spectra were, in an automatic fashion, exported into JCAMP-DX format and converted into pattern vectors for pattern recognition approaches. A window of points was removed from the central part of each vector prior to analysis, to avoid the water residual signal as shown in FIG. 2. Also, data points were removed at the low field and high field portions of the spectral vector because no resonance signals were detectable in these regions.
A first set of 71 spectra, with 3 batches of 6-9 control samples, 2 batches with 15 PURSUIT® treated samples, and one batch each with 6(4) Sethoxydim, Glyphosate, and Diuron treated samples. Two plants fouled after the herbicide treatment phase, and were treated as separate category, exemplifying samples with very different properties. […]

[4] = test system: WT corn (Pioneer 3514, PURSUIT sensitive); test: Phenotypic response of corn lines to PURSUIT in hydroponic medium, wild type line; format: in vivo, Zea mays
Experimental: In these experiments, seedlings from three genetically different corn seed lines were germinated, grown in hydroponic medium, excised, extracted and measured as described before. The plants belong to “wild type” (WT, Pioneer 3514, PURSUIT® sensitive), imidazolinone-tolerant (IT, Gerst 8541 heterozygotic, PURSUIT® tolerant), and imidazolinone-resistant (IR, Pioneer 3395, homozygotic, PURSUIT® resistant) lines.
Two batches with five seedlings each from WT, IR, and IT lines, were grown at various levels of PURSUIT® concentration, as follows in Table 5:
The different lines of corn can be distinguished phenotypically at growing levels of herbicide treatment. […] For WT, herbicidal effects are already observed at the lowest (41 μM) PURSUIT® concentration. On the other hand even the IR lines are affected by concentrations of imidazolinones so high as 4 mM. The plants were harvested after only 24 hours after treatment such that phenotypic differences were restricted to the development (or lack) of the fourth leaf. It is important to harvest at an early stage to avoid that the plants become senescent. The senescence process produces accumulation of a series of metabolites that would obscure the metabolic profile response associated with one specific mode of action.

[5] = test system: IR corn (Pioneer 3395, homozygotic, PURSUIT resistant); settings: saturated solution of PURSUIT; cited from earlier work

Molecule | herbicide treatment group assigned by the neural network [1] | NN classification of treatment / mode-of-action in blind test [2] | Network Recognition [3] | output unit activation [1] | other results
CC(C)C1(C)N=C(c2ncccc2C(=O)O)NC1=O (stereo not drawn) [ARSENAL®, imazapyr] | imazethapyr | correctly assigned as AHAS inhibitors | – | – | –
CC(NC(=O)C(C)NC(=O)C(N)CCP(C)(=O)O)C(=O)O (stereo not drawn) [Bialaphos] | – | – | – | – | signs of damage of treated plants ([1]; 24-hours post-application, bialaphos formulation): # presented much stronger signs of damage than all the others. Formulations usually produce an effect of faster absorption and sometimes translocation that increases the metabolic response.
CN(C)C(=O)Nc1ccc(Cl)c(Cl)c1 [Diuron] | – | – | Diuron | ~1 | NMR spectral changes of treated samples versus controls ([3]; 1H NMR of corn seedling extracts): most changes versus controls in the resonance region of the sugar-proton
COc1nc(C)nc(NC(=O)NS(=O)(=O)c2ccccc2Cl)n1 [GLEAN®, chlorsulfuron] | imazethapyr | correctly assigned as AHAS inhibitors | – | – | –
O=C(O)CNCP(=O)(O)O [Glyphosate] | – | – | Glyphosate | ~1 | –
Cc1cc(C)nc(NC(=O)NS(=O)(=O)c2ccccc2C(=O)O)n1 [OUST®, sulfometuron] | imazethapyr | correctly assigned as AHAS inhibitors | – | – | –
CCc1cnc(C2=NC(C)(C(C)C)C(=O)N2)c(C(=O)O)c1 (stereo not drawn) [PURSUIT ®, imazethapyr] | – | – | PURSUIT ® | ~1 | PURSUIT concentration at which herbicidal effects are observed ([4]; WT line, lowest concentration tested, hydroponic): ≤ 41 µM; phenotypic response observed ([4]; growing levels of herbicide treatment, within 48 hours): total arrest on the growth of the plants and their wilting; phenotypic response of IR plants [5]: growth arrest
CCC/C(=N\OCC)C1=C(O)CC(CC(C)SCC)CC1=O (stereo not drawn) [Sethoxydim] | – | – | Sethoxydim | ~1 | –
imazamethabenz [ASSERT®] | imazethapyr | correctly assigned as AHAS inhibitors | – | – | –

From patent publication US20030023386A1, “Metabolome profiling methods using chromatographic and spectroscopic data in pattern recognition analysis” (priority 2001, published 2003)
